Results taken from patent US10000499B2, “Methyl diazepane orexin receptor antagonists” (MERCK SHARP & DOHME CORP., priority 2014, dated 2018).
pIC50: −log10 of the molar value.

Assays:
human orexin-2 receptor = target: T1, human orexin-2 receptor (Homo sapiens, UniProt O43614); assay: FLIPR Ca2+ flux assay, OX2R; type: cell-based; settings: for pIC50: CHO cells expressing human orexin-2 receptor, agonist 70 pM Ala-6,12 orexin-A, read-out: OX2R FLIPR; for Fold Selective: OX2R over OX1R, from FLIPR values
T1 construct: expressed in transfected cells; host or cells: CHO cells (grown under G418 selection)
T1 sequence (O43614 1-444): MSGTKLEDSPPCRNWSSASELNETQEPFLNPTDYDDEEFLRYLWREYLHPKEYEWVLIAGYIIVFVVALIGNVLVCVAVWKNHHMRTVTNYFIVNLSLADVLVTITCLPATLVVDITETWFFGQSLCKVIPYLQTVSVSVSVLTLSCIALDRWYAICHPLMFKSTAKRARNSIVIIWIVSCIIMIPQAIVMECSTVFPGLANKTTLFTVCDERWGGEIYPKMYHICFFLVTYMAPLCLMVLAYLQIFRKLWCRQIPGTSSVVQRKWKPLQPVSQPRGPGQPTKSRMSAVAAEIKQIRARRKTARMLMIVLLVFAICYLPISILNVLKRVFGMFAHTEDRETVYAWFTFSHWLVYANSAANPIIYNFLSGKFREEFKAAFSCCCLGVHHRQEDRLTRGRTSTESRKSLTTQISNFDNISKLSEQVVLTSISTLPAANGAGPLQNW
Experimental: (§1) For intracellular calcium measurements, Chinese hamster ovary (CHO) cells expressing the rat orexin-1 receptor or the human orexin-2 receptor, are grown in Iscove's modified DMEM containing 2 mM L-glutamine, […], 1% hypoxanthine-thymidine supplement, 100 U/ml penicillin, 100 μg/ml streptomycin and 10% heat-inactivated fetal calf serum (FCS). The cells are seeded at 20,000 cells/well into Becton-Dickinson black 384-well clear bottom sterile plates coated with poly-D-lysine. All reagents were from GIBCO-Invitrogen Corp. The seeded plates are incubated overnight at 37° C. and 5% CO2. Ala-6,12 human orexin-A as the agonist is prepared as a 1 mM stock solution in 1% bovine serum albumin (BSA) and diluted in assay buffer (HBSS containing 20 mM HEPES, 0.1% BSA and 2.5 mM probenecid, pH7.4) for use in the assay at a final concentration of 70 pM. Test compounds are prepared as 10 mM stock solution in DMSO, then diluted in 384-well plates, first in DMSO, then assay buffer. On the day of the assay, cells are washed 3 times with 100 μl assay buffer and then incubated for 60 min (37° C., 5% CO2) in 60 μl assay buffer containing 1 μM Fluo-4AM ester, 0.02% pluronic acid, and 1% BSA, The dye loading solution is then aspirated and cells are washed 3 times with 100 μl assay buffer, 30 μl of that same buffer is left in each well. Within the Fluorescent Imaging Plate Reader (FLIPR, Molecular Devices), test compounds are added to the plate in a volume of 25 μl, incubated for 5 min and finally 25 μl of agonist is added. Fluorescence is measured for each well at 1 second intervals for 5 minutes and the height of each fluorescence peak is compared to the height of the fluorescence peak induced by 70 pM Ala-6,12 orexin-A with buffer in place of antagonist. […] The intrinsic orexin receptor antagonist activity of a compound which may be used in the present invention may be determined by these assays.

rat orexin-1 receptor = target: T2, rat orexin-1 receptor (Rattus norvegicus, UniProt P56718); assay: FLIPR Ca2+ flux assay, OX1R; type: cell-based; settings: CHO cells expressing rat orexin-1 receptor; agonist 70 pM Ala-6,12 orexin-A
T2 construct: expressed in transfected cells; host or cells: CHO cells (grown under G418 selection)
T2 sequence (P56718 1-416): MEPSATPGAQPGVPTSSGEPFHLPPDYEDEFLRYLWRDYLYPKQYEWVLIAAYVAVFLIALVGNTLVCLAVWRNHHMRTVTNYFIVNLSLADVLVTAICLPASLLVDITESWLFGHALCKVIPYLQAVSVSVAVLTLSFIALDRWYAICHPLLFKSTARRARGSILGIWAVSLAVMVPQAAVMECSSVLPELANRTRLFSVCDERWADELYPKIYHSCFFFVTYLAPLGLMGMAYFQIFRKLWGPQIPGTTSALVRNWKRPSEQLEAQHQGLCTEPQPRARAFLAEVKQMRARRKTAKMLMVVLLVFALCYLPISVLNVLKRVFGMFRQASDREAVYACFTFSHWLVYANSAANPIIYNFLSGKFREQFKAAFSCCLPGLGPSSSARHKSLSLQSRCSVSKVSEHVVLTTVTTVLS
Experimental: as §1

| pIC50 (human orexin-2 receptor) | Fold Selective (human orexin-2 receptor) | pIC50 (rat orexin-1 receptor) | SMILES |
| --- | --- | --- | --- |
| 7.54 | 344 | < 5.00 | C[C@@H]1CCN(c2nccn3ccnc23)CCN1C(=O)c1ccccc1C1CC1 [Example 23, 8-{(5R)-4-[(2-cyclopropylphenyl)carbonyl]-5-methyl-1,4-diazepan-1-yl}imidazo[1,2-a]pyrazine] |
| 6.90 | 80 | < 5.00 | COc1ccnc(N2CC[C@@H](C)N(C(=O)c3ccccc3C3CC3)CC2)c1 [Example 9, (5R)-4-[(2-cyclopropylphenyl)carbonyl]-1-(4-methoxypyridin-2-yl)-5-methyl-1,4-diazepane] |
| 6.95 | 88 | < 5.00 | C[C@@H]1CCN(c2nccn3nccc23)CCN1C(=O)c1ccccc1-n1nccn1 [Example 24, 4-[(5R)-5-methyl-4-{[2-(2H-1,2,3-triazol-2-yl)phenyl]carbonyl}-1,4-diazepan-1-yl]pyrazolo[1,5-a]pyrazine] |
| 6.99 | 97 | < 5.00 | COc1ccnc(N2CC[C@@H](C)N(C(=O)c3cccnc3-n3cccn3)CC2)c1 [Example 5, (5R)-1-(4-methoxypyridin-2-yl)-5-methyl-4-{[2-(1H-pyrazol-1-yl)pyridin-3-yl]carbonyl}-1,4-diazepane] |
